Measurements reported in patent US10004701B2, “Methods and compositions for treating infection” (UNIVERSITY OF ROCHESTER, priority 2012, dated 2018).
Where a name gives a salt, the structure may show the parent alone. Read-outs that look alike come from different tables or passages of the source.

What was measured:
Assay in all cases: AK assay 384-well format, Prestwick library screening
[1] = test system: E. faecium; assay type: cell-based, Enterococcus faecium; conditions: for fold induction at 50 µM: Enterococcus faecium, 3 h
[2] = test system: S. aureus strain USA300-0114; assay type: cell-based, Staphylococcus aureus; conditions: for fold induction at 50 µM: Staphylococcus aureus, USA300, 3 h
[3] = test system: K. pneumoniae; assay type: cell-based, Klebsiella pneumoniae; conditions: for fold induction at 50 µM: Klebsiella pneumoniae, 3 h
[4] = test system: A. baumannii strain 98-37-09; assay type: cell-based, Acinetobacter baumannii; conditions: for fold induction at 50 µM: Acinetobacter baumannii, 983709, 3 h
[5] = test system: P. aeruginosa; assay type: cell-based, Pseudomonas aeruginosa; conditions: for fold induction at 50 µM: Pseudomonas aeruginosa, 3 h
[6] = test system: E. cloacae; assay type: cell-based, Enterobacter cloacae; conditions: for fold induction at 50 µM: Enterobacter cloacae, 3 h
[7] = test system: E. coli; assay type: cell-based, Escherichia coli; conditions: for fold induction at 50 µM: Escherichia coli, 3 h
[8] = 50 μM final drug concentration, cutoff for positive-scoring molecules 3-fold increase, read-out: AK-based Prestwick Library Screening Results, K. pneumoniae (fold increase in extracellular AK activity)
[9] = 50 μM final drug concentration, cutoff for positive-scoring molecules 3-fold increase, read-out: AK-based Prestwick Library Screening Results, A. baumannii (fold increase in extracellular AK activity)
[10] = 50 μM final drug concentration, 384-well format, cutoff for positive-scoring molecules 3-fold increase
[11] = 50 μM final drug concentration, planktonic, […]

CC(=O)N(CC(O)CN(C(C)=O)c1c(I)c(C(=O)NCC(O)CO)c(I)c(C(=O)NCC(O)CO)c1I)c1c(I)c(C(=O)NCC(O)CO)c(I)c(C(=O)NCC(O)CO)c1I (stereo not drawn) [Iodixanol]
fold induction at 50 µM ([1]; 50 μM final drug concentration, […], read-out: AK-based Prestwick Library Screening Results, E. faecium (fold increase in extracellular AK activity)): 1.1
fold induction at 50 µM ([2]; 50 μM final drug concentration, […], read-out: AK-based Prestwick Library Screening Results, S. aureus (fold increase in extracellular AK activity)): 1.3
fold induction at 50 µM [3, 8]: 1
fold induction at 50 µM [4, 9]: 1
fold induction at 50 µM ([5]; 50 μM final drug concentration, […], read-out: AK-based Prestwick Library Screening Results, P. aeruginosa (fold increase in extracellular AK activity)): 1.2
fold induction at 50 µM ([6]; 50 μM final drug concentration, […], read-out: AK-based Prestwick Library Screening Results, E. cloacae (fold increase in extracellular AK activity)): 1.5
fold induction at 50 µM ([7]; 50 μM final drug concentration, […], read-out: AK-based Prestwick Library Screening Results, E. coli (fold increase in extracellular AK activity)): 1.3

C[C@]12CC[C@@H](O)C[C@@H]1CC[C@@H]1[C@@H]2CC[C@]2(C)C(=O)CC[C@@H]12 [Androsterone]
fold induction at 50 µM ([1]; read-out: AK-based Prestwick Library Screening Results, E. faecium (increase in extracellular AK activity)): 1
fold induction at 50 µM ([2]; read-out: AK-based Prestwick Library Screening Results, S. aureus (increase in extracellular AK activity)): 0.5
fold induction at 50 µM ([3]; read-out: AK-based Prestwick Library Screening Results, K. pneumoniae (increase in extracellular AK activity)): 0.5
fold induction at 50 µM ([4]; read-out: AK-based Prestwick Library Screening Results, A. baumannii (increase in extracellular AK activity)): 0.7
fold induction at 50 µM ([5]; read-out: AK-based Prestwick Library Screening Results, P. aeruginosa (increase in extracellular AK activity)): 0.6
fold induction at 50 µM ([6]; read-out: AK-based Prestwick Library Screening Results, E. cloacae (increase in extracellular AK activity)): 0.7
fold induction at 50 µM ([7]; read-out: AK-based Prestwick Library Screening Results, E. coli (increase in extracellular AK activity)): 0.6

Oc1c(I)cc(Cl)c2cccnc12 [Clioquinol]
fold induction at 50 µM ([1]; 50 μM final drug concentration, planktonic, cutoff for positive-scoring molecules 3-fold increase, read-out: AK-based Prestwick Library Screening Results, E. faecium (fold increase in extracellular AK activity)): 0.9
fold induction at 50 µM ([2]; 50 μM final drug concentration, planktonic, cutoff for positive-scoring molecules 3-fold increase, read-out: AK-based Prestwick Library Screening Results, S. aureus (fold increase in extracellular AK activity)): 0.2
fold induction at 50 µM ([3]; 50 μM final drug concentration, planktonic, cutoff for positive-scoring molecules 3-fold increase, read-out: AK-based Prestwick Library Screening Results, K. pneumoniae (fold increase in extracellular AK activity)): 0.6
fold induction at 50 µM ([4]; 50 μM final drug concentration, planktonic, cutoff for positive-scoring molecules 3-fold increase, read-out: AK-based Prestwick Library Screening Results, A. baumannii (fold increase in extracellular AK activity)): 1.1
fold induction at 50 µM ([5]; 50 μM final drug concentration, planktonic, cutoff for positive-scoring molecules 3-fold increase, read-out: AK-based Prestwick Library Screening Results, P. aeruginosa (fold increase in extracellular AK activity)): 0.4
fold induction at 50 µM ([6]; 50 μM final drug concentration, planktonic, cutoff for positive-scoring molecules 3-fold increase, read-out: AK-based Prestwick Library Screening Results, E. cloacae (fold increase in extracellular AK activity)): 0.5
fold induction at 50 µM ([7]; 50 μM final drug concentration, planktonic, cutoff for positive-scoring molecules 3-fold increase, read-out: AK-based Prestwick Library Screening Results, E. coli (fold increase in extracellular AK activity)): 0.5

C[C@H](CCC(=O)O)[C@H]1CC[C@H]2[C@@H]3CC[C@@H]4C[C@H](O)CC[C@]4(C)[C@H]3CC[C@]12C [Lithocholic acid]
fold induction at 50 µM ([1]; 50 μM final drug concentration, cutoff for positive-scoring molecules 3-fold increase, read-out: AK-based Prestwick Library Screening Results, E. faecium (fold increase in extracellular AK activity)): 1.2
fold induction at 50 µM ([2]; 50 μM final drug concentration, cutoff for positive-scoring molecules 3-fold increase, read-out: AK-based Prestwick Library Screening Results, S. aureus (fold increase in extracellular AK activity)): 1.1
fold induction at 50 µM [3, 8]: 0.8
fold induction at 50 µM [4, 9]: 1
fold induction at 50 µM ([5]; 50 μM final drug concentration, cutoff for positive-scoring molecules 3-fold increase, read-out: AK-based Prestwick Library Screening Results, P. aeruginosa (fold increase in extracellular AK activity)): 1
fold induction at 50 µM ([6]; 50 μM final drug concentration, cutoff for positive-scoring molecules 3-fold increase, read-out: AK-based Prestwick Library Screening Results, E. cloacae (fold increase in extracellular AK activity)): 1.7
fold induction at 50 µM ([7]; 50 μM final drug concentration, cutoff for positive-scoring molecules 3-fold increase, read-out: AK-based Prestwick Library Screening Results, E. coli (fold increase in extracellular AK activity)): 0.8

OCC(O)CN1CCN(c2ccccc2)CC1 (racemic) [Dropropizine (R,S)]
AK-based Prestwick Library Screening Results, E. faecium (increase in extracellular AK activity) [1, 10]: 0.9
AK-based Prestwick Library Screening Results, S. aureus (increase in extracellular AK activity) [2, 10]: 0.5
AK-based Prestwick Library Screening Results, K. pneumoniae (increase in extracellular AK activity) [3, 10]: 0.5
AK-based Prestwick Library Screening Results, A. baumannii (increase in extracellular AK activity) [4, 10]: 0.5
AK-based Prestwick Library Screening Results, P. aeruginosa (increase in extracellular AK activity) [5, 10]: 0.5
AK-based Prestwick Library Screening Results, E. cloacae (increase in extracellular AK activity) [6, 10]: 0.5
AK-based Prestwick Library Screening Results, E. coli (increase in extracellular AK activity) [7, 10]: 0.7

CN1C(C(=O)Nc2ccccn2)=C(O)c2sccc2S1(=O)=O [Tenoxicam]
fold induction at 50 µM ([1]; 50 μM final drug concentration, planktonic, cutoff for positive 3-fold increase, read-out: AK-based Prestwick Library Screening Results, E. faecium (fold increase in extracellular AK activity)): 1
fold induction at 50 µM ([2]; 50 μM final drug concentration, planktonic, cutoff for positive 3-fold increase, read-out: AK-based Prestwick Library Screening Results, S. aureus (fold increase in extracellular AK activity)): 1.2
fold induction at 50 µM ([3]; 50 μM final drug concentration, planktonic, cutoff for positive 3-fold increase, read-out: AK-based Prestwick Library Screening Results, K. pneumoniae (fold increase in extracellular AK activity)): 0.9
fold induction at 50 µM ([4]; 50 μM final drug concentration, planktonic, cutoff for positive 3-fold increase, read-out: AK-based Prestwick Library Screening Results, A. baumannii (fold increase in extracellular AK activity)): 1
fold induction at 50 µM ([5]; 50 μM final drug concentration, planktonic, cutoff for positive 3-fold increase, read-out: AK-based Prestwick Library Screening Results, P. aeruginosa (fold increase in extracellular AK activity)): 1.1
fold induction at 50 µM ([6]; 50 μM final drug concentration, planktonic, cutoff for positive 3-fold increase, read-out: AK-based Prestwick Library Screening Results, E. cloacae (fold increase in extracellular AK activity)): 1.6
fold induction at 50 µM ([7]; 50 μM final drug concentration, planktonic, cutoff for positive 3-fold increase, read-out: AK-based Prestwick Library Screening Results, E. coli (fold increase in extracellular AK activity)): 1.3

CN1C(=O)OC(C)(C)C1=O [Trimethadione]
fold induction at 50 µM ([1]; planktonic E. faecium, 50 μM final drug concentration, cutoff for positive-scoring molecules 3-fold increase, read-out: AK-based Prestwick Library Screening Results, E. faecium (increase in extracellular AK activity)): 0.9
fold induction at 50 µM ([2]; planktonic S. aureus, 50 μM final drug concentration, cutoff for positive-scoring molecules 3-fold increase, read-out: AK-based Prestwick Library Screening Results, S. aureus (increase in extracellular AK activity)): 0.7
fold induction at 50 µM ([3]; planktonic K. pneumoniae, 50 μM final drug concentration, cutoff for positive-scoring molecules 3-fold increase, read-out: AK-based Prestwick Library Screening Results, K. pneumoniae (increase in extracellular AK activity)): 0.7
fold induction at 50 µM ([4]; planktonic A. baumannii, 50 μM final drug concentration, cutoff for positive-scoring molecules 3-fold increase, read-out: AK-based Prestwick Library Screening Results, A. baumannii (increase in extracellular AK activity)): 0.9
fold induction at 50 µM ([5]; planktonic P. aeruginosa, 50 μM final drug concentration, cutoff for positive-scoring molecules 3-fold increase, read-out: AK-based Prestwick Library Screening Results, P. aeruginosa (increase in extracellular AK activity)): 0.8
fold induction at 50 µM ([6]; planktonic E. cloacae, 50 μM final drug concentration, cutoff for positive-scoring molecules 3-fold increase, read-out: AK-based Prestwick Library Screening Results, E. cloacae (increase in extracellular AK activity)): 1.4
fold induction at 50 µM ([7]; planktonic E. coli, 50 μM final drug concentration, cutoff for positive-scoring molecules 3-fold increase, read-out: AK-based Prestwick Library Screening Results, E. coli (increase in extracellular AK activity)): 1

CN(C/C=C/c1ccccc1)Cc1cccc2ccccc12 [Naftifine hydrochloride]
fold induction at 50 µM ([1]; planktonic E. faecium, 50 μM final drug concentration, positive cutoff 3-fold increase, read-out: AK-based Prestwick library screening result, E. faecium (fold increase in extracellular AK activity)): 1
fold induction at 50 µM ([2]; planktonic S. aureus, 50 μM final drug concentration, positive cutoff 3-fold increase, read-out: AK-based Prestwick library screening result, S. aureus (fold increase in extracellular AK activity)): 0.8
fold induction at 50 µM ([3]; planktonic K. pneumoniae, 50 μM final drug concentration, positive cutoff 3-fold increase, read-out: AK-based Prestwick library screening result, K. pneumoniae (fold increase in extracellular AK activity)): 0.7
fold induction at 50 µM ([4]; planktonic A. baumannii, 50 μM final drug concentration, positive cutoff 3-fold increase, read-out: AK-based Prestwick library screening result, A. baumannii (fold increase in extracellular AK activity)): 1.1
fold induction at 50 µM ([5]; planktonic P. aeruginosa, 50 μM final drug concentration, positive cutoff 3-fold increase, read-out: AK-based Prestwick library screening result, P. aeruginosa (fold increase in extracellular AK activity)): 0.8
fold induction at 50 µM ([6]; planktonic E. cloacae, 50 μM final drug concentration, positive cutoff 3-fold increase, read-out: AK-based Prestwick library screening result, E. cloacae (fold increase in extracellular AK activity)): 1
fold induction at 50 µM ([7]; planktonic E. coli, 50 μM final drug concentration, positive cutoff 3-fold increase, read-out: AK-based Prestwick library screening result, E. coli (fold increase in extracellular AK activity)): 1

CC(=O)O[C@H]1C[C@H](O[C@H]2[C@@H](O)C[C@H](O[C@H]3[C@@H](O)C[C@H](O[C@H]4CC[C@@]5(C)[C@H](CC[C@@H]6[C@@H]5C[C@@H](O)[C@]5(C)[C@@H](C7=CC(=O)OC7)CC[C@]65O)C4)O[C@@H]3C)O[C@@H]2C)O[C@H](C)[C@H]1O[C@@H]1O[C@H](CO)[C@@H](O)[C@H](O)[C@H]1O [Lanatoside C]
AK-based Prestwick Library Screening Results, E. faecium (fold increase in extracellular AK activity) [1, 11]: 0.9
AK-based Prestwick Library Screening Results, S. aureus (fold increase in extracellular AK activity) [2, 11]: 0.7
AK-based Prestwick Library Screening Results, K. pneumoniae (fold increase in extracellular AK activity) [3, 11]: 0.6
AK-based Prestwick Library Screening Results, A. baumannii (fold increase in extracellular AK activity) [4, 11]: 0.8
AK-based Prestwick Library Screening Results, P. aeruginosa (fold increase in extracellular AK activity) [5, 11]: 0.6
AK-based Prestwick Library Screening Results, E. cloacae (fold increase in extracellular AK activity) [6, 11]: 1.0
AK-based Prestwick Library Screening Results, E. coli (fold increase in extracellular AK activity) [7, 11]: 0.6
